Test results from patent US6656906B1, “Hybrid polypeptides with enhanced pharmacokinetic properties” (Trimeris, Inc., priority 1998, dated 2003).

How the values were obtained:
[1] = Rat pharmacokinetic studies, IV, fluorescence HPLC of plasma; type: in vivo, CD rats; details: IV, male CD rats
Protocol: 250-300 g male CD rats, double jugular catheter, obtained from Charles River Laboratories were used. Peptides were injected in one jugular catheter in a volume of 200 μl of peptide solution (approximately 3.75 mg/ml), dosing solution concentration was determined using the Edelhoch method, (Edelhoch, 1967, Biochemistry 6:1948-1954) method and adjusted based on animal weight such that each animal received a dose of 2.5 mg/kg). Approximately 250-300 μl of blood was removed at predetermined time intervals (0, 15, 30 min and 1, 2, 4, 6, and 8 hours) and added to EDTA capiject tubes. Plasma was removed from pelleted cells upon centrifugation and either frozen or immediately processed for fluorescence HPLC analysis.
100 μl of sample plasma was added to 900 μl of precipitation buffer (acetonitrile, 1.0% TFA, detergent) resulting in precipitation of the majority of plasma proteins. Following centrifugation at 10,000 rpm for 10 min, 400 μl of the supernatant was removed and added to 600 μl of HPLC grade water. Serial dilutions were performed as dictated by concentration of peptide present in each sample in dilution buffer comprised of 40% precipitation buffer and 60% HPLC water. In addition to sample dilutions, serial dilutions of dosing solution were performed in buffer as well as in plasma and used to generate a standard curve relating peak area to known concentration of peptide. This curve was then used to calculate concentration of peptide in plasma taking into account all dilutions performed and quantity injected onto column.

[2] = Single-dose administration to primates (SC, IM, IV), plasma pharmacokinetics; type: in vivo, cynomolgus monkeys; details: for bioavailability / half-life / AUC(0-inf) / Cmax / Tmax / AUC(0-t): in vivo; for bioavailability: read-out: FR (%) bioavailability relative to intravenous administration; for half-life: read-out: t½,terminal (converted); for AUC(0-t): read-out: AUC(0-24)
Protocol: A washout period of at least three days separated each dosing day. […] The actual milligram amount of test article was calculated using the peptide content that was determined for the batch administered.
Endpoints for analysis included cageside observations, physical examinations and body weight. For the IV phase of the study, blood samples were collected into heparinized tubes at the following time points: immediately after dosing, 0.25, 0.5, 1.5, 3, 6, 12, and 24 hours after dosing. For the IM and SC phases of the study blood samples were collected in heparinized tubes from each animal at the following time points: 0.5, 1, 2, 3, 6, 12, and 24 hours after dosing. Plasma samples were prepared within one hour of collection and flash frozen in liquid nitrogen. Samples analysis was performed using a PcAb ECLIA assay (Blackburn, G. et al., 1991, Clin. Chem. 37:1534-1539; Deaver, D., 1995, Nature 377:758).

[3] = Penetration into cerebrospinal fluid; type: in vivo, rats; details: all measurable time points, single dose; below limit of detection
[4] = tested on: Molt 4, CEM cells
[5] = Acute toxicity, IV through jugular cannula; type: in vivo; details: 167 mg/kg (highest dose tested), 0.3 ml over 2-3 min
[6] = Single-dose administration to rodents (CSI, SC, IV), plasma pharmacokinetics; type: in vivo, Sprague-Dawley albino rats; details: for bioavailability / AUC(0-t) / AUC(0-inf) / Cmax / half-life / Tmax: rat, in vivo; for bioavailability: read-out: FR (%) relative bioavailability; for half-life: read-out: t1/2, terminal (converted)
Protocol: T1249 was administered to Sprague-Dawley albino rats in a single dose administered by continuous subcutaneous infusion (SCI), subcutaneous (SC) injection or intravenous (IV) injection. Each treatment group consisted of nine rats per sex per group. […] One group received 50 mM carbonate-bicarbonate, pH 8.5, administered as a control. The peptides were given for 12 hours via a polyvinyl chloride/polyethylene catheter surgically implanted subcutaneously in the nape of the neck. […] The actual milligram amount of T1249 was calculated using the peptide content that was determined for the batch administrated.
Endpoints for analysis included cageside observations (twice daily for mortality and moribundity), clinical observations, clinical laboratory parameters, body weight and necropsy. Blood samples were obtained by a sparse sampling technique over a 12 hour time period from three rats per sex per group at each of the following times: 0.5, 1, 2, 4, 6, 8, […], and 12 hours after dose administration. Sample analysis was performed using a PcAb ECLIA assay (Blackburn, G. et al., 1991, Clin. Chem. 37:1534-1539; Deaver, D., 1995, Nature 377:758).

[7] = cynomolgus monkey, IM (0.8 mg/kg)
[8] = cynomolgus monkey, IV (0.8 mg/kg)
[9] = cynomolgus monkey, SC (0.4 mg/kg)
[10] = cynomolgus monkey, SC (0.8 mg/kg)
[11] = cynomolgus monkey, SC (1.6 mg/kg)

## CC[C@H](C)[C@H](NC(=O)[C@H](CCC(N)=O)NC(=O)[C@H](C)NC(=O)[C@H](CCC(N)=O)NC(=O)[C@H](CCC(=O)O)NC(=O)[C@H](CC(C)C)NC(=O)[C@H](CC(C)C)NC(=O)[C@H](C)NC(=O)[C@@H](NC(=O)[C@@H](NC(=O)[C@H](CCCCN)NC(=O)[C@H](CCC(N)=O)NC(=O)[C@H](CCC(=O)O)NC(=O)[C@H](Cc1c[nH]c2ccccc12)NC(=O)[C@H](CCC(=O)O)NC(=O)[C@H](CCC(N)=O)NC(=O)[C@H](Cc1c[nH]c2ccccc12)NC(C)=O)[C@@H](C)CC)[C@@H](C)O)C(=O)N[C@@H](CCC(N)=O)C(=O)N[C@@H](CCC(N)=O)C(=O)N[C@@H](CCC(=O)O)C(=O)N[C@@H](CCCCN)C(=O)N[C@@H](CC(N)=O)C(=O)N[C@@H](CCC(=O)O)C(=O)N[C@@H](Cc1ccc(O)cc1)C(=O)N[C@@H](CCC(=O)O)C(=O)N[C@@H](CC(C)C)C(=O)N[C@@H](CCC(N)=O)C(=O)N[C@@H](CCCCN)C(=O)N[C@@H](CC(C)C)C(=O)N[C@@H](CC(=O)O)C(=O)N[C@@H](CCCCN)C(=O)N[C@@H](Cc1c[nH]c2ccccc12)C(=O)N[C@@H](C)C(=O)N[C@@H](CO)C(=O)N[C@@H](CC(C)C)C(=O)N[C@@H](Cc1c[nH]c2ccccc12)C(=O)N[C@@H](CCC(=O)O)C(=O)N[C@@H](Cc1c[nH]c2ccccc12)C(=O)N[C@@H](Cc1ccccc1)C(N)=O [T1249]
[1]
  beta-phase half-life relative to T20: nearly three times greater than T20
  total AUC relative to T20: nearly three times greater than T20
[2]; IM (0.8 mg/kg)
  t½,terminal: 5.57 h
[2]; IV (0.8 mg/kg), 0.8 mg/kg
  t½,terminal: 5.35 h
[2]; SC (0.8 mg/kg), 0.8 mg/kg
  t½,terminal: 4.83 h
[2]; SC administration, 0.4-1.6 mg/kg
  linearity of pharmacokinetics: linear pharmacokinetics
[2]; both sexes, cynomolgus monkey, plasma, 24 hours after SC and IV administration, read-out: quantifiable plasma levels at 24 hours
  level at 24 h: > 500 ng/mL
[2]; cynomolgus monkey, 0.8 mg/kg, IM (0.8 mg/kg)
  bioavailability: ~64%
[2]; cynomolgus monkey, 0.8 mg/kg, SC (0.8 mg/kg)
  bioavailability: ~92%
[2]; cynomolgus monkey, im, 0.8 mg/kg, IM (0.8 mg/kg)
  half-life: 5.6 h
[2]; cynomolgus monkey, iv, 0.8 mg/kg, IV (0.8 mg/kg)
  half-life: 5.4 h
[2]; cynomolgus monkey, sc, 0.4 mg/kg, SC (0.4 mg/kg)
  half-life: 6.23 h
[2]; cynomolgus monkey, sc, 0.8 mg/kg, SC (0.8 mg/kg)
  half-life: 4.8 h
[2]; cynomolgus monkey, sc, 1.6 mg/kg, SC (1.6 mg/kg)
  half-life: 5.55 h
[2]; [7]
  AUC(0-inf): 59500 ng·h/mL
  Cmax: 6370 ng/mL
  Tmax: 2.32 h
  AUC(0-t): 56400 ng·h/mL
[2]; [8]
  AUC(0-inf): 92500 ng·h/mL
  Cmax: 26700 ng/mL
  AUC(0-t): 87400 ng·h/mL
[2]; [9]
  AUC(0-inf): 40900 ng·h/mL
  Cmax: 3170 ng/mL
  Tmax: 3.97 h
  AUC(0-t): 37500 ng·h/mL
[2]; [10]
  AUC(0-inf): 85300 ng·h/mL
  Cmax: 6850 ng/mL
  Tmax: 4.58 h
  AUC(0-t): 8120 ng·h/mL
[2]; [11]
  AUC(0-inf): 181000 ng·h/mL
  Cmax: 13300 ng/mL
  Tmax: 4.72 h
  AUC(0-t): 168000 ng·h/mL
[3]
  concentration in cerebrospinal fluid (CSF): < 2.0 ng T1249/ml CSF
[4]
  cytotoxicity in vitro: No overt evidence of T1249 cytotoxicity
[5]
  acute toxicity (death within 24 hours): not acutely toxic
[6]; CSI
  time to steady-state plasma peptide concentrations: approximately four hours
[6]; CSI, 0.5 to 6.5 mg/kg
  dose proportionality of Cpss and AUC: linear pharmacokinetics
[6]; SC injection
  dose dependence of exposure: not dose-dependent
[6]; all dose groups
  changes in body weight, physical observations, hematology and clinical chemistry parameters or macroscopic pathology: no changes
[6]; bolus IV injection
  dose dependence of pharmacokinetics: linear dose-dependent pharmacokinetics
[6]; SC 1.2 mg/kg relative to IV 1.5 mg/kg
  bioavailability: 73%
[6]; SC 15 mg/kg relative to IV 5 mg/kg
  bioavailability: 30%
[6]; CSI, 0.5 mg/kg
  AUC(0-t): 7990 ng·h/mL
[6]; CSI, 2.0 mg/kg
  AUC(0-t): 25900 ng·h/mL
[6]; CSI, 6.5 mg/kg
  AUC(0-t): 120000 ng·h/mL
[6]; IV 1.5 mg/kg
  AUC(0-inf): 47100 ng·h/mL
  AUC(0-t): 45600 ng·h/mL
  Cmax: 15700 ng/mL
  half-life: 2.46 h
[6]; IV 5.0 mg/kg
  AUC(0-inf): 120000 ng·h/mL
  AUC(0-t): 118000 ng·h/mL
  Cmax: 46300 ng/mL
  half-life: 1.86 h
[6]; SC 1.2 mg/kg
  AUC(0-inf): 27600 ng·h/mL
  AUC(0-t): 27000 ng·h/mL
  Cmax: 6370 ng/mL
  Tmax: 1.09 h
  half-life: 2.02 h
[6]; SC 15 mg/kg
  AUC(0-inf): 110000 ng·h/mL
  AUC(0-t): 107000 ng·h/mL
  Cmax: 21500 ng/mL
  Tmax: 1.88 h
  half-life: 2 h
